Results: PubChem BioAssay AID1963834 (Molecular Pharmacology Branch, DTP, NCI, 2024)

Test system: 873145-292-R-J1-PDC complex spheroid viability
Assay: Anticancer human tumor 873145-292-R-J1-PDC patient-derived renal clear cell carcinoma cell line growth inhibition [POLQ]
Settings: for IC50: curve of first compound; for viability, T/C: stronger effect = lower value
Procedure, shortened: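 Three-cell-type spheroids modelling solid tumor plus stroma served as the readout system; POL inhibitors were tested individually and in combination, concentration ranges set by clinical Cmax where known.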

[1] = second compound 0.0316 µM, first compound 0.0316 µM
[2] = second compound 0.0316 µM, first compound 0.1 µM
[3] = second compound 0.0316 µM, first compound 0.316 µM
[4] = second compound 0.0316 µM, first compound 1 µM
[5] = second compound 0.0316 µM, first compound 3.16 µM
[6] = second compound 0.0316 µM, first compound 10 µM
[7] = second compound 0.1 µM, first compound 0.0316 µM
[8] = second compound 0.1 µM, first compound 0.1 µM
[9] = second compound 0.1 µM, first compound 0.316 µM
[10] = second compound 0.1 µM, first compound 1 µM
[11] = second compound 0.1 µM, first compound 3.16 µM
[12] = second compound 0.1 µM, first compound 10 µM
[13] = second compound 0.316 µM, first compound 0.0316 µM
[14] = second compound 0.316 µM, first compound 0.1 µM
[15] = second compound 0.316 µM, first compound 0.316 µM
[16] = second compound 0.316 µM, first compound 1 µM
[17] = second compound 0.316 µM, first compound 3.16 µM
[18] = second compound 0.316 µM, first compound 10 µM
[19] = second compound 1 µM, first compound 0.0316 µM
[20] = second compound 1 µM, first compound 0.1 µM
[21] = second compound 1 µM, first compound 0.316 µM
[22] = second compound 1 µM, first compound 1 µM
[23] = second compound 1 µM, first compound 3.16 µM
[24] = second compound 1 µM, first compound 10 µM
[25] = second compound 3.16 µM, first compound 0.0316 µM
[26] = second compound 3.16 µM, first compound 0.1 µM
[27] = second compound 3.16 µM, first compound 0.316 µM
[28] = second compound 3.16 µM, first compound 1 µM
[29] = second compound 3.16 µM, first compound 3.16 µM
[30] = second compound 3.16 µM, first compound 10 µM
[31] = second compound 10 µM, first compound 0.0316 µM
[32] = second compound 10 µM, first compound 0.1 µM
[33] = second compound 10 µM, first compound 0.316 µM
[34] = second compound 10 µM, first compound 1 µM
[35] = second compound 10 µM, first compound 3.16 µM
[36] = second compound 10 µM, first compound 10 µM
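Also: spheroids exposed to compounds for 7 days before viability readout.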
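For viability, T/C in this document: luminescence signal used as surrogate for viable cell content; 100% = DMSO vehicle control viability.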

Work on `CC(C)n1c(=O)n(C)c2cnc3cc(F)c(-c4ccc(OCCCN5CCCCC5)nc4)cc3c21` + Nc1ccc(C#CCN(C(=O)Cc2ncc(C(F)(F)F)cc2C(F)(F)F)c2ccc(F)cc2)nn1 yielded an IC50 (second compound 0.0316 µM) of over 10 µM, an IC50 (second compound 0.1 µM) of over 10 µM and an IC50 (second compound 0.316 µM) of over 10 µM. The IC50 (second compound 1 µM) was over 10 µM, the IC50 (second compound 3.16 µM) was over 10 µM and the IC50 (second compound 10 µM) was over 10 µM. It also gave a viability, T/C [1] of 97.1%, a viability, T/C [2] of 106% and a viability, T/C [3] of 97.8%. It also gave a viability, T/C [4] of 102%, a viability, T/C [5] of 99.6% and a viability, T/C [6] of 107%. The viability, T/C [7] was 107%, the viability, T/C [8] was 112% and the viability, T/C [9] was 97.1%. For the same compound, the viability, T/C [10] was 108%, the viability, T/C [11] was 93.8% and the viability, T/C [12] was 80.5%. The viability, T/C [13] was 104%, the viability, T/C [14] was 115% and the viability, T/C [15] was 97%. For the same compound, the viability, T/C [16] was 103%, the viability, T/C [17] was 104% and the viability, T/C [18] was 72.1%. The viability, T/C [19] was 109%, the viability, T/C [20] was 106% and the viability, T/C [21] was 113%. The viability, T/C [22] was 96%, the viability, T/C [23] was 97% and the viability, T/C [24] was 85.8%. It also gave a viability, T/C [25] of 99.8%, a viability, T/C [26] of 111% and a viability, T/C [27] of 92.4%. It also gave a viability, T/C [28] of 102%, a viability, T/C [29] of 101% and a viability, T/C [30] of 86.1%. For the same compound, the viability, T/C [31] was 110%, the viability, T/C [32] was 101% and the viability, T/C [33] was 108%. For the same compound, the viability, T/C [34] was 107%, the viability, T/C [35] was 104% and the viability, T/C [36] was 86%.
Work on `CCc1cc2c(N3CCc4c(cc(Cn5ccnc5)cc4-c4cn(C)nc4C(F)(F)F)C3=O)cc(C)nc2c(OC)n1` + Nc1ccc(C#CCN(C(=O)Cc2ncc(C(F)(F)F)cc2C(F)(F)F)c2ccc(F)cc2)nn1 yielded an IC50 (second compound 0.0316 µM) of over 10 µM, an IC50 (second compound 0.1 µM) of over 10 µM and an IC50 (second compound 0.316 µM) of over 10 µM. It also gave an IC50 (second compound 1 µM) of over 10 µM, an IC50 (second compound 3.16 µM) of over 10 µM and an IC50 (second compound 10 µM) of over 10 µM. For the same compound, the viability, T/C [1] was 92.6%, the viability, T/C [2] was 110% and the viability, T/C [3] was 101%. For the same compound, the viability, T/C [4] was 91.2%, the viability, T/C [5] was 80.6% and the viability, T/C [6] was 75.2%. It also gave a viability, T/C [7] of 103%, a viability, T/C [8] of 100% and a viability, T/C [9] of 77.9%. It also gave a viability, T/C [10] of 93%, a viability, T/C [11] of 79.2% and a viability, T/C [12] of 68.6%. It also gave a viability, T/C [13] of 94.4%, a viability, T/C [14] of 109% and a viability, T/C [15] of 74%. It also gave a viability, T/C [16] of 90.7%, a viability, T/C [17] of 95.8% and a viability, T/C [18] of 73.6%. The viability, T/C [19] was 101%, the viability, T/C [20] was 92.5% and the viability, T/C [21] was 91.9%. It also gave a viability, T/C [22] of 95.8%, a viability, T/C [23] of 77.6% and a viability, T/C [24] of 76.8%. It also gave a viability, T/C [25] of 97.9%, a viability, T/C [26] of 104% and a viability, T/C [27] of 97.6%. It also gave a viability, T/C [28] of 93%, a viability, T/C [29] of 85.7% and a viability, T/C [30] of 78.9%. It also gave a viability, T/C [31] of 105%, a viability, T/C [32] of 101% and a viability, T/C [33] of 98%. The viability, T/C [34] was 97.3%, the viability, T/C [35] was 89% and the viability, T/C [36] was 69.2%.
Work on `CCc1cc2c(N3CCc4c(cc(Cn5ccnc5)cc4-c4cn(C)nc4C(F)(F)F)C3=O)ccnc2c(OC)n1` + Nc1ccc(C#CCN(C(=O)Cc2ncc(C(F)(F)F)cc2C(F)(F)F)c2ccc(F)cc2)nn1 yielded an IC50 (second compound 0.0316 µM) of over 10 µM, an IC50 (second compound 0.1 µM) of over 10 µM and an IC50 (second compound 0.316 µM) of over 10 µM. It also gave an IC50 (second compound 1 µM) of over 10 µM, an IC50 (second compound 3.16 µM) of over 10 µM and an IC50 (second compound 10 µM) of over 10 µM. It also gave a viability, T/C [1] of 97.9%, a viability, T/C [2] of 106% and a viability, T/C [3] of 87.8%. For the same compound, the viability, T/C [4] was 89.5%, the viability, T/C [5] was 81.3% and the viability, T/C [6] was 80.9%. It also gave a viability, T/C [7] of 98.7%, a viability, T/C [8] of 110% and a viability, T/C [9] of 82.9%. For the same compound, the viability, T/C [10] was 92.8%, the viability, T/C [11] was 102% and the viability, T/C [12] was 69.5%. It also gave a viability, T/C [13] of 101%, a viability, T/C [14] of 111% and a viability, T/C [15] of 82.3%. It also gave a viability, T/C [16] of 82.5%, a viability, T/C [17] of 101% and a viability, T/C [18] of 70.8%. The viability, T/C [19] was 92.7%, the viability, T/C [20] was 89.5% and the viability, T/C [21] was 79.6%. It also gave a viability, T/C [22] of 87.6%, a viability, T/C [23] of 94.3% and a viability, T/C [24] of 72.2%. For the same compound, the viability, T/C [25] was 99.8%, the viability, T/C [26] was 96.7% and the viability, T/C [27] was 82.2%. For the same compound, the viability, T/C [28] was 99.6%, the viability, T/C [29] was 80.9% and the viability, T/C [30] was 74.1%. The viability, T/C [31] was 106%, the viability, T/C [32] was 96.5% and the viability, T/C [33] was 97.8%. For the same compound, the viability, T/C [34] was 104%, the viability, T/C [35] was 84.9% and the viability, T/C [36] was 77.7%.
Work on `COc1cc2cc(C(=O)CCC(=O)O)sc2cc1OC` + Nc1ccc(C#CCN(C(=O)Cc2ncc(C(F)(F)F)cc2C(F)(F)F)c2ccc(F)cc2)nn1 yielded an IC50 (second compound 0.0316 µM) of over 10 µM, an IC50 (second compound 0.1 µM) of over 10 µM and an IC50 (second compound 0.316 µM) of over 10 µM. It also gave an IC50 (second compound 1 µM) of over 10 µM, an IC50 (second compound 3.16 µM) of over 10 µM and an IC50 (second compound 10 µM) of over 10 µM. It also gave a viability, T/C [1] of 94.6%, a viability, T/C [2] of 116% and a viability, T/C [3] of 95.8%. The viability, T/C [4] was 97.8%, the viability, T/C [5] was 104% and the viability, T/C [6] was 102%. The viability, T/C [7] was 106%, the viability, T/C [8] was 115% and the viability, T/C [9] was 92.3%. The viability, T/C [10] was 107%, the viability, T/C [11] was 121% and the viability, T/C [12] was 91.5%. The viability, T/C [13] was 104%, the viability, T/C [14] was 116% and the viability, T/C [15] was 96.8%. The viability, T/C [16] was 99.3%, the viability, T/C [17] was 97.2% and the viability, T/C [18] was 89.8%. The viability, T/C [19] was 104%, the viability, T/C [20] was 105% and the viability, T/C [21] was 112%. It also gave a viability, T/C [22] of 105%, a viability, T/C [23] of 104% and a viability, T/C [24] of 92.5%. It also gave a viability, T/C [25] of 112%, a viability, T/C [26] of 104% and a viability, T/C [27] of 91.8%. It also gave a viability, T/C [28] of 106%, a viability, T/C [29] of 103% and a viability, T/C [30] of 103%. It also gave a viability, T/C [31] of 113%, a viability, T/C [32] of 105% and a viability, T/C [33] of 119%. For the same compound, the viability, T/C [34] was 110%, the viability, T/C [35] was 103% and the viability, T/C [36] was 105%.
